Values quoted from earlier work in US10059681B2, “Disubstituted maleic anhydrides with altered kinetics of ring closure” (Arrowhead Madison Inc., priority 2011, dated 2018).

How the values were obtained:
[1] = Kirby 1980
[2] = Eberson et al. 1971

Row | Compound | kobs of amine release [1] | K=k1/k−1 of equilibrium in water toward ring closure [2]
1 | CNC(=O)C1=C(C(=O)O)CCCC1 | 3.5×10^−2 | 
2 | C/C(C(=O)O)=C(\C)C(=O)O [dimethyl maleic acid] |  | 5.3
3 | O=C(O)c1ccccc1C(=O)O [phthalic acid] |  | 10^−2
